Experimental data reported in US4740233A, “Substituted 1,2,4-triazolo[1,5-a]-pyrimidine-2-sulfonamides and compositions and methods of controlling undesired vegetation and suppressing the nitrification of ammonium nitrogen in soil” (The Dow Chemical Company, priority 1986, dated 1988).

Experiments:
Experiment in all cases: Preemergent control of plant species
corn = format: in vivo, Zea mays; details: Zea mays, pre-emergence, 336 h; 0.25 lb/acre; read-out: percent preemergent control
Method in brief: (§1)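 Test compositions were applied evenly to the surface of freshly seeded soil beds and kept under greenhouse conditions for two weeks. Percent control reflects growth reduction compared with water-treated beds of the same species.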

rice = format: in vivo, Oryza sativa; details: Oryza sativa, pre-emergence, 336 h; 0.25 lb/acre; read-out: percent preemergent control
Method in brief: as §1

johnson grass = format: in vivo, Sorghum halepense; details: Sorghum halepense, pre-emergence, 336 h; 0.25 lb/acre; read-out: percent preemergent control
Method in brief: as §1

yellow nutsedge = format: in vivo, Cyperus esculentus; details: Cyperus, pre-emergence, 336 h; 0.25 lb/acre; read-out: percent preemergent control
Method in brief: as §1

velvetleaf = format: in vivo, Abutilon theophrasti; details: Abutilon theophrasti, pre-emergence, 336 h; 0.25 lb/acre; read-out: percent preemergent control
Method in brief: as §1

wheat = format: in vivo, Triticum aestivum; details: Triticum aestivum, pre-emergence, 336 h; 0.25 lb/acre; read-out: percent preemergent control
Method in brief: as §1

jimsonweed = format: in vivo, Datura stramonium; details: Datura stramonium, pre-emergence, 336 h; 0.25 lb/acre; read-out: percent preemergent control
Method in brief: as §1

annual morning glory = format: in vivo, Ipomoea spp.; details: Ipomoea, pre-emergence, 336 h; 0.25 lb/acre; read-out: percent preemergent control
Method in brief: as §1

rape = format: in vivo, Brassica napus; details: Brassica napus, pre-emergence, 336 h; 0.25 lb/acre; read-out: percent preemergent control
Method in brief: as §1

sorghum = format: in vivo, Sorghum vulgare; details: Sorghum, pre-emergence, 336 h; 0.25 lb/acre; read-out: percent preemergent control
Method in brief: as §1

sugar beet = format: in vivo, Beta saccharifera; details: Beta vulgaris, pre-emergence, 336 h; 0.25 lb/acre; read-out: percent preemergent control
Method in brief: as §1

cotton = format: in vivo, Gossypium spp.; details: Gossypium hirsutum, pre-emergence, 336 h; 0.25 lb/acre; read-out: percent preemergent control
Method in brief: as §1

wild oats = format: in vivo; details: Avena fatua, pre-emergence, 336 h; 0.25 lb/acre; read-out: percent preemergent control
Procedure: The seeds of various species of plants were planted in beds of good agricultural soil in a greenhouse. A number of compositions of the present invention, generally in the nature of an aqueous emulsion, were applied at rates listed in the table so as to deposit a predetermined amount of active ingredients uniformly throughout the surface of the bed. Another seed bed was treated only with water to serve as a control. After treatment the seed beds were maintained for two weeks under greenhouse conditions conducive for good plant growth and watered as necessary. Control refers to the reduction in growth compared to the observed results of the same untreated species.

barnyardgrass = format: in vivo, Echinochloa crusgalli; details: Echinochloa crus-galli, pre-emergence, 336 h; 0.25 lb/acre; read-out: percent preemergent control
Method in brief: as §1

soybean = format: in vivo, Glycine max.; details: Glycine max, pre-emergence, 336 h; 0.25 lb/acre; read-out: percent preemergent control
Method in brief: as §1

yellow foxtail = format: in vivo, Setaria lutescens; details: Setaria, pre-emergence, 336 h; 0.25 lb/acre; read-out: percent preemergent control
Method in brief: as §1

Compound	plant injury at 280.212 g/ha (corn) [%]	plant injury at 280.212 g/ha (rice) [%]	pest or weed control at 280.212 g/ha (johnson grass) [%]	pest or weed control at 280.212 g/ha (yellow nutsedge) [%]	pest or weed control at 280.212 g/ha (velvetleaf) [%]	plant injury at 280.212 g/ha (wheat) [%]	pest or weed control at 280.212 g/ha (jimsonweed) [%]	pest or weed control at 280.212 g/ha (annual morning glory) [%]	plant injury at 280.212 g/ha (rape) [%]	plant injury at 280.212 g/ha (sorghum) [%]	plant injury at 280.212 g/ha (sugar beet) [%]	plant injury at 280.212 g/ha (cotton) [%]	pest or weed control at 280.212 g/ha (wild oats) [%]	pest or weed control at 280.212 g/ha (barnyardgrass) [%]	plant injury at 280.212 g/ha (soybean) [%]	pest or weed control at 280.212 g/ha (yellow foxtail) [%]
Cc1cnc2nc(S(=O)(=O)Nc3c(Cl)ccc(C)c3Cl)nn2c1 [Compound 194]	0	0	0	95	90	0	95	90	100	30	100	90	0	0	70	0
COc1nc2nc(S(=O)(=O)Nc3c(F)cccc3F)nn2cc1C [Compound 214]	100	100	100	100	100	100	100	100	100	100	100	100	100	100	100	100
COC(=O)c1cccc(F)c1NS(=O)(=O)c1nc2nc(OC)c(C)cn2n1 [Compound 215]	100	100	100	100	100	100	100	100	100	100	100	100	100	100	100	100
COC(=O)c1cccc(C)c1NS(=O)(=O)c1nc2nc(OC)c(C)cn2n1 [Compound 216]	100	90	100	70	100	100	100	90	20	100	100	100	100	75	70	100
CCOC(=O)N(c1c(Cl)cccc1Cl)S(=O)(=O)c1nc2nc(C)ccn2n1 [Compound 272]	0	30	40	100	100	0	90	40	100	40	100	80	0	60	0	90
